Measurements reported in patent publication US20230220443A1, “CHARACTERIZATION OF S-ADENOSYL-L-METHIONINE-CONSUMING ENZYMES WITH 1-STEP EZ-MTASE: A UNIVERSAL COUPLED-ASSAY” (ALBERT EINSTEIN COLLEGE OF MEDICINE, priority 2017, published 2023).
Several values for one entry are separate records, joined by “and”; a condition that tells them apart may be missing. Equal entries are not always repeated. Where two headings read alike, the source gives them in different places. One block for each molecule: values may come before it.

How the values were obtained:
[1] = pKa from pH-dependence of differential extinction coefficient (UV); type: physicochemical
Description: Nucleoside concentrations (stock solutions) were determined using known extinction coefficients for: adenosine, 259(ε/M^−1 cm^−1 15,400) and 8-aza-adenosine, 277(e/M-1 cm^−1 17,830). The deaminase reactions using these various substrates were performed in quartz cuvettes (1-cm light path; 3-mL reaction volume) and absorbance measurements were carried out with a NanoDrop 2000c (scan mode: 220-320 nm with multi scans superimposed; 37° C. and continuous stirring). Briefly, the 3-mL reactions contained 50 mM buffer (acetate: pH 4.00-5.00; MES: pH 5.00-6.50; phosphate: pH 5.80-8.00; TRIS: pH 7.50-8.50; CHES: pH 8.90-9.90), 1 mM βME and 10% glycerol. Five different concentrations of either adenosine or 8-aza-adenosine substrates were used (10, 20, 30, 40 and 50 μM). Mixtures were blanked before acquisition and reactions started upon addition of deaminase (TM0936, 2 μL of 240.5 μM enzyme stock). Over the course of the deaminase reaction (e.g. adenosine→inosine), optimum wavelengths at which the highest absorbance shift is observed were selected (i.e. adenosine reaction, λ=[…]; 8-aza-adenosine reaction, λ1=282 nm and λ2=292 nm). Scans were recorded until the absorbance at these monitored wavelengths reached a stable value (82). For each pH condition, the end-point absorbance shifts were plotted against initial nucleoside concentrations and fitted to a linear regression: each slope is a differential extinction coefficient (Δε) for deamination of the specific nucleoside substrate. Furthermore, the pH-dependence of differential extinction coefficient (Ae) for this deaminase reaction was obtained by plotting the pairs (Δε; pH) and fitting these to the following supplementary Eq. 2:
where ΔεHIGH pH and ΔεLOW pH are the extinction coefficient measured at optimum wavelengths (i.e. λ for adenosine and λ1 or λ2 for 8-aza-adenosine) for the deaminase reaction at high and low pH, respectively, and […] is the logarithm of acid dissociation constant for either inosine or 8-aza-inosine.

[2] = pKa from pH-dependence of fluorescence; type: physicochemical; settings: 50 mM buffer series
Description: Calibration of fluorescence signal for the 8-aza-A to 8-aza-I reaction—This procedure is very similar to the one described under “Differential Extinction Coefficients (Δε) for Deaminase Reaction”. Briefly, standard solutions (240 μL) of 8-aza-adenosine (0-25 μM; 12 data points) containing 50 mM buffer (pH 5.00-9.50), 10% glycerol and 1 mM βME, were loaded into a […] black flat bottom plate. 10-μL water per well were added to one data-set (12 concentrations of 8-aza-adensoine); 10-μL TM0936 solution (24.05 μM) were added to the remaining samples (12 concentrations of 8-azaadenosine at various pH values). The loss of fluorescence (Em=360 nm) from 8-azaadenosine standard solutions (Ex=282/292 nm) where recorded with a Spectramax M5 plate reader until no change in signal could be observed.
At a same pH, the comparison between end-point deaminase reactions and reference well (TM0936 added but no 8-aza-adenosine) provided the pH-dependence of 8-azainosyl fluorescence. […] Furthermore, the comparison between end-point deaminase reactions and reference well (various 8-aza-adenosine concentrations but no TM0936 added) provided the calibration curve of fluorescence signal for the 8-aza-adenosine to 8-aza-ionisine reaction. […]

deaminase TM0936 = molecular target: T1, deaminase TM0936 (Thermotoga maritima, UniProt Q9X034); test: Deamination by coupling enzyme TM0936; type: biochemical
T1 construct: polyhistidine; made in house; host or cells: bacteria
T1 sequence (Q9X034 1-406): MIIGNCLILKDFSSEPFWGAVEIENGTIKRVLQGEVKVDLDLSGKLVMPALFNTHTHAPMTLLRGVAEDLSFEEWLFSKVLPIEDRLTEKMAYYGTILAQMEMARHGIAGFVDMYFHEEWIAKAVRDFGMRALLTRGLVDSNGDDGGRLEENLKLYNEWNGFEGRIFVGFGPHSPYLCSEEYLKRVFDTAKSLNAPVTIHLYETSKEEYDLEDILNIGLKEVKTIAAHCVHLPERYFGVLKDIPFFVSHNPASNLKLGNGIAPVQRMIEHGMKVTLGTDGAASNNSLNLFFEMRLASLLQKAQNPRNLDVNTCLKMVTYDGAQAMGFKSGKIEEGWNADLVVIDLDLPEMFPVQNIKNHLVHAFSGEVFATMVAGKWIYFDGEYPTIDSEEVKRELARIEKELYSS
Description: FIG. 9A-9D. Sinefungin is a positive control compatible with the 1-Step EZ-MTase assay. (A) MTAN-based assays catabolize the methyltransferase inhibitor sinefungin (SIN). […] (C) pH-dependence of the reaction between sinefungin and TM0936. […] (D) Inhibition of the sarcosine/dimethylglycine methyltransferase by sinefungin. […] The initial methyltransfer rates were recorded at 263 nm. Further analysis provided the inhibition constant Ki (1.8±0.4 μM).

[3] = cited from earlier work
GsSDMT = molecular target: T2, GsSDMT (Galdieria sulphuraria, UniProt M2XPA0); test: 1-Step EZ-MTase UV-based coupled assay, GsSDMT kinetics; type: biochemical; settings: pH=7.80, co-substrate saturating
T2 sequence (M2XPA0 2-297): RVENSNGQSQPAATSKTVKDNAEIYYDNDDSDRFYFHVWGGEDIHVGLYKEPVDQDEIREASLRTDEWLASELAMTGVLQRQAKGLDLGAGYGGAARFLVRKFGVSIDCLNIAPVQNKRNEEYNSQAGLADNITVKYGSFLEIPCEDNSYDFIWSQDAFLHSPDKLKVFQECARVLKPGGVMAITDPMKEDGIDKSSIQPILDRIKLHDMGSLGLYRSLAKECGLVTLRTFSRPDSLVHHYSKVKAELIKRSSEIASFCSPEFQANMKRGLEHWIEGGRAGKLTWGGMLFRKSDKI
Description: Kinetic behavior for sarcosine against GsSDMT (SAM sat.)—Experiments were conducted following matching CePRMT5 protocol above. Briefly, the 100-μL mixtures from a same row contained 100 mM phosphate buffer pH=7.80, 1 mM βME, 5% glycerol, 100 μM MgCl2, 4 μM coupling deaminase TM0936, 976 nM GsSDMT and various sarcosine concentrations (0.5-12.5 mM; in the first well, sarcosine was omitted to account for background signal—natural decomposition of SAM). Reactions started upon addition of SAM (750 μM saturating final concentration), 60-μL volumes were transferred onto UV plate and absorbance was recorded. Initial rates were first corrected for background signal, and then plotted against sarcosine concentrations. Fit to the Michaelis-Menten equation provided corresponding kinetic parameters.
Kinetic behavior for SAM against GsSDMT (sarcosine sat.)—Experiments were conducted following matching CePRMT5 protocol above. Briefly, the measurements consisted of two experimental subsets: MTase reactions (both SAM and sarcosine added) and MTase blanks (SAM was added without sarcosine to account for natural SAM decomposition). The 100-μL reaction mixtures from a same row contained 100 mM phosphate buffer pH=7.80, 1 mM βME, 5% glycerol, 100 μM MgCl2, 4 μM coupling deaminase TM0936, 195 nM GsSDMT and various SAM concentrations (49.9-750.2 μM). Reactions started upon addition of either sarcosine (10 mM saturating final concentration; MTase reactions) or water (MTase blanks), 60-μL volumes were transferred onto UV plate and absorbance was recorded at 263 nm. Initial rates were first corrected for background signal, and then plotted against SAM concentrations. Fit to the Michaelis-Menten equation provided corresponding kinetic parameters.
Kinetic behavior for 8-aza-SAM against MTases (acceptor sat.)—Briefly, kinetic parameters were determined at 20° C. in a UV-Star 96-well flat bottom plate (Greiner Bio-One, #655801) by continuous monitoring of absorbance at 282 nm using a SpectraMax M5 instrument (Molecular Devices). As for SAM experiments, the measurements consisted of two experimental subsets: MTase reactions (both 8-aza-SAM and acceptor added) and MTase blanks (8-aza-SAM was added without acceptor to account for natural 8-aza-SAM decomposition). The 250-μL (60-μL) reaction mixtures from a same row contained 50 mM phosphate buffer pH=7.60 (7.80), 1 mM βME, 10% glycerol (5% glycerol, 100 μM MgCl2), 4 μM coupling deaminase TM0936, either 1.5 μM CePRMT5 or 402 nM TbPRMT7 (or 610 nM GsSDMT) and various 8-aza-SAM concentrations. […] Initial rates were first corrected for background signal, then plotted against 8-aza-SAM concentrations and fitted to the Michaelis-Menten equation to yield corresponding kinetic parameters.

Compound: OC[C@H]1O[C@@H](n2nnc3c(O)ncnc32)[C@H](O)[C@@H]1O [8-aza-inosine]
pKa ([1]; 282 nm): 7.29 ± 0.03 | pKa ([1]; 292 nm): 7.3 ± 0.03 | pKa ([2]; pH 5.00-9.50, Ex/Em 282/360 nm): 7.5 ± 0.03 | pKa ([2]; pH 5.00-9.50, Ex/Em 292/360): 7.54 ± 0.04

Compound: Nc1ncnc2c1ncn2[C@@H]1O[C@H](CSCC[C@H](N)C(=O)O)[C@@H](O)[C@H]1O [SAH, S-adenosyl-L-homocysteine]
Km (deaminase TM0936; room temperature): 0.6 ± 0.2 µM | kcat (deaminase TM0936; room temperature): 7.1 ± 0.4 s⁻¹

Compound: Nc1ncnc2c1ncn2[C@@H]1O[C@H](CO)[C@@H](O)[C@H]1O [adenosine]
deamination by TM0936, slower than that of its 8-aza analog (deaminase TM0936; 10 μM substrate, 1 nM TM0936 (FIG. 7A)): 10 fold

Continued, in another order:

kcat (GsSDMT): 1.5 ± 0.083 s⁻¹
Compound: CNCC(=O)O [Sarcosine, sarcosine]
pKa ([3]; methyl-amine group from sarcosine): 10.0 | pKa ([3]; sarcosine carboxylate): ≈ 2.2

pKa ([1]; 263 nm): 8.72 ± 0.09
Compound: OC[C@H]1O[C@@H](n2cnc3c(O)ncnc32)[C@H](O)[C@@H]1O [inosine]
pKa ([3]; inosine, literature): 8.9 and 8.85
